Source: patent publication US7863449B2, “Modulators of muscarinic receptors” (Vertex Pharmaceuticals Incorporated, priority 2004, dated 2011)
Counter-ions that a name gives are not always drawn.

Key:
[1] = biological target: T1, M1 muscarinic receptor (Homo sapiens, UniProt P11229); assay: Functional mobilization of intracellular calcium (FLIPR), M1-CHO cells; format: cell-based; details: for Emax: 100% efficacy is the maximum response obtained using Carbachol as a control; for M1 Activity: M1-CHO cells, FLIPR calcium mobilization
T1 construct: expressed in transfected cells; host or cells: CHO (M1-CHO)
T1 sequence (P11229 1-460): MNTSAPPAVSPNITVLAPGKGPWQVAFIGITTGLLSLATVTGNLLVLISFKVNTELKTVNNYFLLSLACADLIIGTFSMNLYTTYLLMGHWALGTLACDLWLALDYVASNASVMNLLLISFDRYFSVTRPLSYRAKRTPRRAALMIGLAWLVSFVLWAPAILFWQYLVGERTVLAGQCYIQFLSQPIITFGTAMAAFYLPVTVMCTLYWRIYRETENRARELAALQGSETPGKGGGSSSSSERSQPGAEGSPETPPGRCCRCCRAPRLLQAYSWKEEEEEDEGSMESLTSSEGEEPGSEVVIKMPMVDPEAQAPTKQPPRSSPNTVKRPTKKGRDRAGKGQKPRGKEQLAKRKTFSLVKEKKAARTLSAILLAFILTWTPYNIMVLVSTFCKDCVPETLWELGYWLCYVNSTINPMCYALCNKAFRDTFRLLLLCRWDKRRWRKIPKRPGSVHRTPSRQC
Outline: (§1)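 CHO cells expressing M1 or M4, loaded with Fluo-3 AM or Calcium 3 dye with 1 mM probenecid, 0.5% DMSO final. Agonist mode: compound added directly; antagonist mode: 15 min pre-incubation (or co-application) before carbachol at EC80. Fluorescence recorded 60 s on FLIPR.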

[2] = biological target: T2, M4 muscarinic receptor (Homo sapiens, UniProt P08173); assay: Functional mobilization of intracellular calcium (FLIPR), M4-CHO cells; format: cell-based; details: for Emax: 100% efficacy is the maximum response obtained using Carbachol as a control; for M4 Activity: M4-CHO cells, FLIPR calcium mobilization
T2 construct: expressed in transfected cells; host or cells: CHO (M4-CHO)
T2 sequence (P08173 1-479): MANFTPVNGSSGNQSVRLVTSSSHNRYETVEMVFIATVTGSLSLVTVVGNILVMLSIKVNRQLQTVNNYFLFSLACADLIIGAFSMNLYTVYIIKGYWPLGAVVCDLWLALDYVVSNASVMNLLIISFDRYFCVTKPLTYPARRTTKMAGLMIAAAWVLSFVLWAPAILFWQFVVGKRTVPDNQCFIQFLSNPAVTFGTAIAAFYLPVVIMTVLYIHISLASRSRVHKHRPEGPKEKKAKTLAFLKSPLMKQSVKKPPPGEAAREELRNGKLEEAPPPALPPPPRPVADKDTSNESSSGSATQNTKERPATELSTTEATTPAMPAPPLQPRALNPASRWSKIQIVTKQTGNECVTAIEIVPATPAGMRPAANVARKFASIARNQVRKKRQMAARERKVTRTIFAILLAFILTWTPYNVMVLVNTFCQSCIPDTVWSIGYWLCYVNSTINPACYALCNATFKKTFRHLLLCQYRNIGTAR
Outline: as §1

Row | SMILES | Emax [1] [%] | M1 Activity [1] | Emax [2] [%] | M4 Activity [2]
1 | CCOC(=O)N1C2CCC1CC(N1CCC3(CC1)CN(S(=O)(=O)c1ccc(F)cc1)Cc1ccccc13)C2 (centres unmarked) [compound 205, Ethyl 3-(2-(4-fluorophenylsulfonyl)-2,3-dihydro-1H-spiro-[isoquinoline-4,4′-piperidine]-1′-yl)-8-azabicyclo[3.2.1]-octane-8-carboxylate hydrochloride] | 25 to 100 | +++ (activity was measured to be less than 1.0 μM) | 25 to 100 | +++ (activity was measured to be less than 1.0 μM)
2 | COC(=O)N1Cc2ccccc2C2(CCN(C3CC4CCC(C3)N4C(=O)OC(C)C)CC2)C1 (centres unmarked) [compound 206] | 25 to 100 | +++ (activity was measured to be less than 1.0 μM) | 25 to 100 | +++ (activity was measured to be less than 1.0 μM)
3 | COCCOC(=O)N1CCC(CN2CCC3(CC2)CN(C(C)=O)Cc2ccccc23)CC1 [compound 207] | 25 to 100 | + (activity was measured to be greater than 5.0 μM) | 25 to 100 | ++ (activity was measured to be from 1.0 μM to 5.0 μM)
4 | CCOC(=O)N1CCC(CN2CCC3(CC2)CN(C(=O)C2CC2)Cc2ccccc23)CC1 [compound 208] | 25 to 100 | +++ (activity was measured to be less than 1.0 μM) | 25 to 100 | +++ (activity was measured to be less than 1.0 μM)
5 | CCOC(=O)N1CCC(N2CCC3(CC2)CN(C(=O)CC(F)(F)F)Cc2ccccc23)CC1 [compound 209] | 25 to 100 | +++ (activity was measured to be less than 1.0 μM) | 25 to 100 | +++ (activity was measured to be less than 1.0 μM)
6 | Cc1cc(C(=O)N2Cc3ccccc3C3(CCN(C4CC5CCC(C4)N5C(=O)O[C@@H]4CCOC4)CC3)C2)nn1C (some centres unmarked) [compound 210] | 25 to 100 | +++ (activity was measured to be less than 1.0 μM) | 25 to 100 | +++ (activity was measured to be less than 1.0 μM)
7 | CCOC(=O)N1CCC(N2CCC3(CC2)CN(C(=O)N2CCCCC2)Cc2ccccc23)CC1 [compound 211] | 25 to 100 | +++ (activity was measured to be less than 1.0 μM) | < 25 | + (activity was measured to be greater than 5.0 μM)
8 | O=C(OC1CCC1)N1Cc2ccccc2C2(CCN(C3CC4CCC(C3)N4C(=O)O[C@H]3CCOC3)CC2)C1 (some centres unmarked) [compound 212] |  | +++ (activity was measured to be less than 1.0 μM) |  | +++ (activity was measured to be less than 1.0 μM)
9 | CCOC(=O)N1C2CCC1CC(N1CCC3(CC1)CN(C(=O)c1cnoc1C)Cc1ccccc13)C2 (centres unmarked) [compound 213] | 25 to 100 | +++ (activity was measured to be less than 1.0 μM) | 25 to 100 | +++ (activity was measured to be less than 1.0 μM)
10 | CCOC(=O)N1CCC(CN2CCC3(CC2)CN(C(=O)c2ccno2)Cc2ccccc23)CC1 [compound 214] | 25 to 100 | +++ (activity was measured to be less than 1.0 μM) | 25 to 100 | +++ (activity was measured to be less than 1.0 μM)
11 | CC(=O)N1Cc2ccccc2C2(CCN(C3CCOCC3)CC2)C1 [compound 215] | 25 to 100 | ++ (activity was measured to be from 1.0 μM to 5.0 μM) | 25 to 100 | + (activity was measured to be greater than 5.0 μM)
12 | CCOC(=O)N1CC[C@@H](CN2CCC3(CC2)CN(C(C)=O)Cc2ccccc23)C1 [compound 216] | 25 to 100 | +++ (activity was measured to be less than 1.0 μM) | 25 to 100 | +++ (activity was measured to be less than 1.0 μM)
13 | CC(=O)N1Cc2ccccc2C2(CCN(Cc3cc4ccccc4o3)CC2)C1 [compound 217] | < 25 | + (activity was measured to be greater than 5.0 μM) | < 25 | + (activity was measured to be greater than 5.0 μM)
14 | CCOC(=O)N1C2CCC1CC(N1CCC3(CC1)CN(S(=O)(=O)Cc1ccccc1)Cc1ccccc13)C2 (centres unmarked) [compound 218] | 25 to 100 | +++ (activity was measured to be less than 1.0 μM) | 25 to 100 | +++ (activity was measured to be less than 1.0 μM)
15 | CCOC(=O)N1C2CCC1CC(N1CCC3(CC1)CN(C(=O)c1cc(C)n(C)n1)Cc1ccccc13)C2 (centres unmarked) [compound 219] | 25 to 100 | +++ (activity was measured to be less than 1.0 μM) | 25 to 100 | +++ (activity was measured to be less than 1.0 μM)
16 | CCOC(=O)N1C2CCC1CC(N1CCC3(CC1)CN(C(=O)c1snnc1C(C)C)Cc1ccccc13)C2 (centres unmarked) [compound 220] | 25 to 100 | +++ (activity was measured to be less than 1.0 μM) | 25 to 100 | +++ (activity was measured to be less than 1.0 μM)
17 | CCOC(=O)N1CCC(N2CCC3(CC2)CN(C(=O)c2ccccc2)Cc2ccccc23)CC1 [compound 221] | 25 to 100 | +++ (activity was measured to be less than 1.0 μM) | 25 to 100 | +++ (activity was measured to be less than 1.0 μM)
18 | CS(=O)(=O)N1Cc2ccccc2C2(CCN(C3CC4CCC(C3)N4C(=O)O[C@@H]3CCOC3)CC2)C1 (some centres unmarked) [compound 222] | 25 to 100 | +++ (activity was measured to be less than 1.0 μM) | 25 to 100 | +++ (activity was measured to be less than 1.0 μM)
19 | Cc1cc(C(=O)N2Cc3ccccc3C3(CCN(C4CC5CCC(C4)N5C(=O)OC4CCC4)CC3)C2)nn1C (centres unmarked) [compound 223] | 25 to 100 | +++ (activity was measured to be less than 1.0 μM) | 25 to 100 | +++ (activity was measured to be less than 1.0 μM)
20 | CCOC(=O)N1C2CCC1CC(N1CCC3(CC1)CN(C(=O)C1CC1)Cc1ccccc13)C2.Cl (centres unmarked) [compound 224, Ethyl 3-(2-(cyclopropanecarbonyl)-2,3-dihydro-1H-spiro[isoquinoline-4,4′-piperidine]-1′-yl)-8-azabicyclo-[3.2.1]octane-8-carboxylate hydrochloride] | 25 to 100 | +++ (activity was measured to be less than 1.0 μM) | 25 to 100 | +++ (activity was measured to be less than 1.0 μM)
21 | CCOC(=O)N1CCC(N2CCC3(CC2)CN(C(=O)c2cnon2)Cc2ccccc23)CC1 [compound 225] | 25 to 100 | +++ (activity was measured to be less than 1.0 μM) | 25 to 100 | +++ (activity was measured to be less than 1.0 μM)
22 | O=C1c2ccccc2C2(CCN([C@@H]3C[C@@H]4CC[C@@H]3C4)CC2)N1Cc1ccccc1 [compound 227] | < 25 | + (activity was measured to be greater than 5.0 μM) | < 25 | + (activity was measured to be greater than 5.0 μM)
